{"source": "paper PMC2119004", "about": "(The Journal of Experimental Medicine, 1991)", "key": {"[1]": {"molecular_target": "I-Ad (Mus musculus, UniProt P01921+P04228)", "test": "Inhibition of biotin-Myo", "type": "binding", "details": "Fig. 7a; 1 mM DTT, 48 h"}, "[2]": {"tested_on": "insulin-immune or A(1-14)-immune H-2d and H-2b lymph node lymphocytes", "test": "Lymph node proliferation assay", "type": "cell-based, mouse", "details": "Fig. 6a,b; INS-primed BALB/c or C57BL/10 (H-2d, H-2b); 4 d, [3H]thymidine"}, "[3]": {"tested_on": "Bb-6 and Bd-l.4 T cell hybridomas", "test": "Stimulation of T cell hybridomas in the presence of live APC", "type": "cell-based, mouse", "details": "Fig. 2; for stimulation of T cells in the presence of live APC (in words): live TH2.2, serum-containing media, 24 h, HT-2 lymphokine assay"}, "[4]": {"tested_on": "Bb-6 and Bd-l.4 T cell hybridomas", "test": "Stimulation of T cell hybridomas by fixed APC", "type": "cell-based, mouse", "details": "for requirement of DTT for presentation by fixed APC (in words): Fig. 4, fixed TH2.2, 18 h at 37°C, 0.15 M citrate/phosphate, pH 5 (A(1-14) forms) or pH 6 (sulfonated A chain), ± 2 mM DTT"}, "[5]": {"molecular_target": "T1, I-Ed (Mus musculus, UniProt P01904+P01915)", "T1 sequence (P01904 whole entry, looked up)": "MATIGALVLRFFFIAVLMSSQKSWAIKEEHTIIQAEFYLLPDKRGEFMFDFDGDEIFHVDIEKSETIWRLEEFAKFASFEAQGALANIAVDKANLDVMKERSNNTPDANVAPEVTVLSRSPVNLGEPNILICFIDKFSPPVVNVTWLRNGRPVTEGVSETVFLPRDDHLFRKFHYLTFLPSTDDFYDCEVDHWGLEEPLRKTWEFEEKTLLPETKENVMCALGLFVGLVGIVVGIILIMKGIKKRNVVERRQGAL", "T1 sequence (P01915 whole entry, looked up)": "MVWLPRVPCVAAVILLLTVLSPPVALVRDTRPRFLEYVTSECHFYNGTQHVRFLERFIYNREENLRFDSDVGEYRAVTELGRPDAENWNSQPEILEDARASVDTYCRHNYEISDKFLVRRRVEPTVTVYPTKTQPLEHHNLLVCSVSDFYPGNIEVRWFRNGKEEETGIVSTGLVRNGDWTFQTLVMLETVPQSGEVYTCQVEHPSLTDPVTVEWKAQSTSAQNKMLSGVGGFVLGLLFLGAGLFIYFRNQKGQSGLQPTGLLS", "test": "Inhibition of biotin-HEL", "type": "binding", "details": "Fig. 8b; 2 µM biotin-HEL(104-120)"}, "[6]": {"molecular_target": "T1, I-Ed", "test": "Binding of alkylated HEL", "details": "data not shown"}, "[7]": {"tested_on": "I-Ab-restricted beef insulin-reactive T cell clones", "details": "large panel of I-Ab-restricted beef insulin-reactive T cell clones; cited from earlier work"}, "[8]": {"tested_on": "apamin-specific T cells", "details": "live APC; reduced and alkylated apamin; cited from earlier work"}, "[9]": {"molecular_target": "T2, I-Ad (Mus musculus, UniProt P01921+P04228)", "T2 sequence (P01921 whole entry, looked up)": "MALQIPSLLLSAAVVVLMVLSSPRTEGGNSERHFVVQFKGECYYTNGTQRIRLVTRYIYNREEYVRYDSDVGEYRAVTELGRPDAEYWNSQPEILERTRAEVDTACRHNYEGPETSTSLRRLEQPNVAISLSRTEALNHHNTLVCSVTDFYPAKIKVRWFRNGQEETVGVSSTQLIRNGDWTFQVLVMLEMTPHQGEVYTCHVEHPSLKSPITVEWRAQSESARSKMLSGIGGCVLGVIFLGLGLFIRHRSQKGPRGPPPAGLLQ", "T2 sequence (P04228 whole entry, looked up)": "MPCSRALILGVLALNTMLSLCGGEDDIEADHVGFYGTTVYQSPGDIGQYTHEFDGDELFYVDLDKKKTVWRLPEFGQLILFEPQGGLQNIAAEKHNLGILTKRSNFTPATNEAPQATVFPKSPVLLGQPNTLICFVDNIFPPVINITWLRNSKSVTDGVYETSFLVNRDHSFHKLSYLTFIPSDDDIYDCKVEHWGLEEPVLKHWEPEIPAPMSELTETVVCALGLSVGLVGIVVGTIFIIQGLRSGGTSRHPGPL", "test": "Binding of biotinylated insulin to purified I-Ad", "details": "preliminary, data not shown; absence of reduction"}, "[10]": {"tested_on": "Bd-l.4 T cell hybridoma (I-Ad-restricted)", "details": "cited from earlier work"}, "[11]": {"tested_on": "Bb-6 T cell hybridoma (I-Ab-restricted)", "details": "cited from earlier work"}}, "note": "Ends that are not written are not given here."}
{"compound": "O[C@@H](CS)[C@@H](O)CS", "note": "(racemic) [DTT, dithiothreitol]", "values": [{"measurement": "inhibition of peptide binding by DTT alone (in words)", "setting": "[1]", "value": "did not inhibit peptide binding"}]}
{"compound": "FVNQHLCGSHLVEALYLVCG- ERGFFYTPKA [B(1-30)]", "values": [{"measurement": "proliferation of beef insulin-immune lymphocytes (in words)", "setting": "[2]", "value": "but not to B chain"}]}
{"compound": "GIVEQCCASVCSLY [A(1-14)]", "values": [{"measurement": "stimulation of T cells in the presence of live APC (in words)", "setting": "[3]", "value": "essentially inactive"}, {"measurement": "potency relative to insulin/DTT with fixed APC (in words)", "setting": "[4]; Fig. 3, fixed TH2.2", "value": "equivalent"}, {"measurement": "inhibition of biotin-HEL(104-120) binding to I-Ed (in words)", "setting": "[5]", "value": "only at relatively high"}]}
{"compound": "GMNAWVAWRNRC- KGTDVY [HEL(104-120)]", "values": [{"measurement": "effect of sulfhydryl alkylation on binding to I-Ed (in words)", "setting": "[6]", "value": "does not affect its capacity to bind purified FEd"}]}
{"compound": "INS: Beef insulin purchased from Elanco Products Co.", "values": [{"measurement": "molar excess of DTT to insulin disulfides at optimal response", "setting": "[4]; Fig. 1b, fixed TH2.2, 33 µM INS", "value": "~10", "unit": "fold"}, {"measurement": "DTT concentration for optimal T cell responses", "setting": "[4]; Fig. 1b, fixed TH2.2, 18 h at 37°C in PBS, 33 µM INS", "value": "0.1 to 1", "unit": "mM"}, {"measurement": "activation of T cells by fixed APC exposed to antigen and DTT (in words)", "setting": "[4]; fixed TH2.2, overnight, 2 mM DTT", "value": "able to activate Bb-6 and Bd-l.4 T cells"}]}
{"compound": "Sulfonated A chain: sulfonated A chain of beef insulin purified from sulfonated insulin by reverse-phase HPLC", "values": [{"measurement": "fold lower concentration of intact insulin giving comparable stimulation", "setting": "[3]; live APC, both I-Ab- and I-Ad-restricted T cells", "value": "3-10 fold"}, {"measurement": "requirement of DTT for presentation by fixed APC (in words)", "setting": "[4]", "value": "in the presence, but not the absence, of DTT were capable of stimulating Bd-l.4 and Bb-6"}, {"measurement": "fraction of T cell clones responding to sulfonated A chain but not performic acid-oxidized insulin", "setting": "[7]", "value": "> 90", "unit": "%"}]}
{"compound": "air oxidized A(1-14): air-oxidized form of A(1-14) (GIVEQCCASVCSLY; disulfide (positions not given here); also: air-oxidized, interchain disulfides; UniProt P01317 85-98, looked up, fragment)", "values": [{"measurement": "requirement of DTT for presentation by fixed APC (in words)", "setting": "[4]", "value": "disulfide reduction was required for presentation"}]}
{"compound": "apamin", "values": [{"measurement": "T cells failing to recognize apamin after reduction and alkylation", "setting": "[8]", "value": "3/16"}]}
{"compound": "biotinylated insulin: biotinylated insulin", "values": [{"measurement": "binding of biotinylated insulin to I-Ad without reduction (in words)", "setting": "[9]", "value": "can bind to I-Ad"}]}
{"compound": "oxlNS: Performic acid-oxidized beef insulin", "values": [{"measurement": "stimulation of T cells in the presence of live APC (in words)", "setting": "[3]", "value": "do not stimulate these T cells"}]}
{"compound": "pork insulin: pork insulin", "values": [{"measurement": "recognition by Bd-l.4 (in words)", "setting": "[10]", "value": "partiallycrossreactivewith pork insulin"}, {"measurement": "recognition by Bb-6 (in words)", "setting": "[11]", "value": "but not pork, insulin"}]}
{"compound": "purified A chain from oxlNS: purified A chain from oxINS insulin", "values": [{"measurement": "stimulation of T cells in the presence of live APC (in words)", "setting": "[3]", "value": "do not stimulate these T cells"}]}
{"compound": "rcamlNS: reduced and carboxyamidomethylated beef insulin", "values": [{"measurement": "stimulation of T cells in the presence of live APC (in words)", "setting": "[3]", "value": "do not stimulate these T cells"}]}
